Measurements taken from patent EP2875811A1, “Use of dobesilate for treating ocular haemorrhages” (priority 2013, dated 2015).

Key:
submacular haemorrhage = format: in vivo, human
Method: A person with a history of wet age-related macular degeneration (AMD) in both eyes developed a sudden vision decrease in the right eye. The best corrected visual acuity (BCVA) on presentation was of 0.05. […] Haemorrhage seems also result in the RPE detachment at some points (Fig 1D, asterisk). Intravitreal dobesilate was administered in the right eye, using a standard protocol. After approval of our Institution Ethical Committee, the patient signed an informed consent form, which included a comprehensive description of dobesilate and the proposed procedure. Patient received an intravitreal solution of dobesilate (150µl) under sterile conditions in their right eye, following the International Guidelines for intravitreal injections (Aiello LP et al. Retina. 2004; 24 (5 Suppl):S3-S19). Dobesilate was administered as a 12.5% solution of diethylammonium 2.5-dihydroxybenzenesulfonate (etamsylate; dicynone® Sanofi-Aventis. Paris. France).
(§1) • Figure 1 Sequence of fundus photographs (A-D) and spectral-domain optical coherence tomography (SD-OCT) scans (D-F) of a patient with a moderate-sized submacular haemorrhage at baseline (A,D), and one (B,E) and two months (C,F) after a single intravitreal injection of dobesilate. Asterisk in D indicates retinal pigment epithelium (RPE) detachment. • Figure 2 Efficacy of intravitreal dobesilate injection to clear vitreous haemorrhage in a diabetic patient. A and C photographs were taken at presentation, and B and D after 3 days of treatment. […] Note in B the abnormal appearance of the pupil due to luxation of the lens. Arrow indicates paracentesis site.

vitreous haemorrhage = format: in vivo, human
Method: A 68 old-year type 2 diabetic man presented with intense vision loss in their right eye. […] Intraocular pressure was 50mmHg that was reduced to 14mmHg after a paracentesis procedure. After approval of the Institutional Ethics Committee, the patient signed an informed consent form, which included a comprehensive description of dobesilate and the proposed procedure. Patient received an intravitreal solution of dobesilate (150 µl) under sterile conditions, following the International Guidelines for intravitreal injections (Aiello LP et al. Retina. 2004; 24 (5 Suppl):S3-S19) in their right eye. Dobesilate was administered as a 12.5% solution of diethylammonium 2.5-dihydroxybenzenesulfonate (etamsylate, dicynone® Sanofi-Aventis. Paris. France).
as §1, with “Arrow indicates paracentesis site.” left out

[1] = person, right eye, intravitreal 150µl of 12.5% solution, along two months follow-up

**Q.** How did the ocular side effects (submacular haemorrhage; human, in vivo) turn out when `O=S(=O)(O)c1cc(O)ccc1O` [dobesilate, diethylammonium 2.5-dihydroxybenzenesulfonate] was run?
**A.** Its ocular side effects is “No ocular side effects were observed”.

**Q.** And the “SD-OCT scans: retinal architecture / RPE detachment” value (submacular haemorrhage; [1])?
**A.** The value was “progressive normalization of the retinal architecture with disappearance of RPE detachment”.

**Q.** And the “haemorrhage signs (fundus)” value (submacular haemorrhage; [1])?
**A.** The value was “gradually disappeared”.

**Q.** What about the “final BCVA (best corrected visual acuity)” value (submacular haemorrhage; person, right eye, intravitreal 150µl of 12.5% solution, two months follow-up, BCVA on presentation 0.05) of the same compound?
**A.** The value was 0.50.

**Q.** And the Intraocular pressure (vitreous haemorrhage; after treatment, pressure had been reduced from 50mmHg to 14mmHg by paracentesis before injection)?
**A.** Its Intraocular pressure is “maintained at normal level”.

**Q.** What about the ocular side effects (vitreous haemorrhage; human, in vivo) of the same compound?
**A.** Its ocular side effects is “No ocular side effects were observed”.
